pIC50, pKd: −log10 of the molar value. In brackets after ≈: the same amount, converted by molar mass. Several values for one entry are separate records, joined by “and”; a condition that tells them apart may be missing. Identical values can stand only once. Where a SMILES comes first, the peptide text is derived from it. [ ]: non-standard residue; d: D form. Cha = N[C@@H](CC1CCCCC1)C(=O)O; Aib = CC(C)(N)C(=O)O
How the values were obtained:
[1] = molecular target: SARS-CoV-2 RBD binding to immobilized ACE2 (Severe acute respiratory syndrome coronavirus 2, UniProt P0DTC2); assay: biochemical
[2] = Solubility measurement (peptide concentration in saturated solution); conditions: sodium-phosphate buffer, pH 7.4, aqueous buffer, thermodynamic from solid
Description: Approximately 2 mg of each peptide was added to 500 µl of buffer in 1.5-ml Eppendorf tubes. The tubes were shaken at 25 °C for 2 h on a 900 r.p.m. vortex shaker. The samples were centrifuged at 12,000 r.p.m. for 15 min to remove the precipitate and the supernatant was analyzed by ultraviolet–visible light (UV–vis) spectrometry.

SARS-CoV-2 RBD = SARS-CoV-2 RBD (Severe acute respiratory syndrome coronavirus 2, UniProt P0DTC2); assay: biochemical; assay type: binding; conditions: KD (direct binding to RBD)
[3] = Cell viability (MTT) assay, Vero-E6; assay type: cell-based, monkey; conditions: monkey; Vero-E6 cells, MTT, 20 μM (highest concentration tested), 48 h
Description: (§1) The cell viability assay was performed by using the MTT (3-(4,5-dimethylthiazol-2-yl)-2,5-diphenyltetrazolium bromide) assay. […] The next day, 50 μl of media was removed from each well and 50 μl of the peptide was added in a dose-dependent manner. 10% DMSO (final concentration v/v) was used as a positive control for the induction of cytotoxicity. […] The plate was incubated for another 4 h in the humidified CO2 incubator, after which 100 μl of dissolving solution (10% SDS in 0.01 M HCl) was added to each well. The plate was then incubated in a CO2 incubator overnight. The next day, the plate was read for absorbance at 570 nm. The percentage viability of cells was recorded in comparison to the untreated cells.

Vero-E6 cells = assay: Cell viability (MTT) assay, Vero-E6; assay type: cell-based, monkey; conditions: Vero-E6 cytotoxicity vs pseudovirus IC50
Description: as §1

Structure (SMILES)	pIC50 [1]	solubility thermodynamic at 2 h [2] [µM]	pKd (SARS-CoV-2 RBD; re-analyzed)	viability at 48 h, 20 µM [3] [%]	pKd (SARS-CoV-2 RBD)	Selectivity index (50% cytotoxic concentration divided by IC50) (Vero-E6 cells)
CC[C@H](C)[C@H](NC(=O)[C@H](CC(C)C)NC(=O)[C@H](CC(=O)O)NC(=O)[C@H](CO)NC(=O)[C@@H](NC(=O)[C@H](CCCNC(=N)N)NC(=O)[C@H](CCSC)NC(=O)[C@H](CO)NC(=O)[C@H](C)NC(=O)[C@H](CCC(=O)O)NC(=O)C(C)(C)NC(=O)[C@H](CC(N)=O)NC(=O)[C@@H](C)NC(=O)[C@H](CC(C)C)NC(=O)[C@H](CCC(=O)O)NC(=O)[C@H](CC(=O)O)NC(=O)[C@H](CC(C)C)NC(=O)[C@H](CC(C)C)NC(=O)[C@H](CCCNC(=N)N)NC(=O)[C@H](CCSC)NC(=O)[C@@H](NC(=O)[C@H](CCC(=O)O)NC(=O)[C@H](Cc1ccc(O)cc1)NC(=O)[C@@H](NC(=O)[C@H](CCCCN)NC(=O)[C@H](CCC(N)=O)NC(=O)[C@H](CC(C)C)NC(=O)[C@@H](NC(=O)[C@H](Cc1c[nH]c2ccccc12)NC(=O)[C@H](CCC(=O)O)NC(=O)[C@H](CCCCN)NC(=O)[C@@H](N)CC(=O)O)[C@@H](C)CC)[C@@H](C)CC)[C@@H](C)CC)C(C)C)C(=O)N[C@@H](Cc1ccc(O)cc1)C(=O)N[C@@H](CCC(=O)O)C(=O)N[C@@H](Cc1ccccc1)C(=O)N[C@@H](CCSC)C(=O)N[C@@H](CCCCN)C(=O)N[C@@H](CCCCN)C(N)=O [SIH-4] (H-DKEWILQKIYEIMRLLDEL[dA]N[Aib]EASMRVSDLIYEFMKK-NH2)	6.30 to 6.60	220 (≈ 1020 µg/mL)	–	–	–	–
CC[C@H](C)[C@H](NC(=O)[C@H](CC(C)C)NC(=O)[C@H](CC(=O)O)NC(=O)[C@H](CO)NC(=O)[C@@H](NC(=O)[C@H](CCCNC(=N)N)NC(=O)[C@H](CCSC)NC(=O)[C@H](CO)NC(=O)[C@H](C)NC(=O)[C@H](CCC(=O)O)NC(=O)C(C)(C)NC(=O)[C@H](CC(=O)O)NC(=O)[C@@H](C)NC(=O)[C@H](CC(C)C)NC(=O)[C@H](CCC(=O)O)NC(=O)[C@H](CC(=O)O)NC(=O)[C@H](CC(C)C)NC(=O)[C@H](CC(C)C)NC(=O)[C@H](CCCNC(=N)N)NC(=O)[C@H](CCSC)NC(=O)[C@@H](NC(=O)[C@H](CCC(=O)O)NC(=O)[C@H](Cc1ccc(O)cc1)NC(=O)[C@@H](NC(=O)[C@H](CCCCN)NC(=O)[C@H](CCC(N)=O)NC(=O)[C@H](CC(C)C)NC(=O)[C@@H](NC(=O)[C@H](Cc1c[nH]c2ccccc12)NC(=O)[C@H](CCC(=O)O)NC(=O)[C@H](CCCCN)NC(=O)[C@@H](N)CC(=O)O)[C@@H](C)CC)[C@@H](C)CC)[C@@H](C)CC)C(C)C)C(=O)N[C@@H](Cc1ccc(O)cc1)C(=O)N[C@@H](CCC(=O)O)C(=O)N[C@@H](Cc1ccccc1)C(=O)N[C@@H](CCSC)C(=O)N[C@@H](CCCCN)C(=O)N[C@@H](CCCCN)C(N)=O [SIH-5] (H-DKEWILQKIYEIMRLLDEL[dA]D[Aib]EASMRVSDLIYEFMKK-NH2)	6.60 to 6.90	> 700	~9.05 and 9.05	> 75	–	–
CC[C@H](C)[C@H](NC(=O)[C@H](CC(C)C)NC(=O)[C@H](CC(=O)O)NC(=O)[C@H](CO)NC(=O)[C@@H](NC(=O)[C@H](CCCNC(=N)N)NC(=O)[C@H](CCSC)NC(=O)[C@H](CO)NC(=O)[C@H](C)NC(=O)[C@H](CCC(=O)O)NC(=O)C(C)(C)NC(=O)[C@H](CC(=O)O)NC(=O)[C@@H](C)NC(=O)[C@H](CC(C)C)NC(=O)[C@H](CCC(=O)O)NC(=O)[C@H](CC(=O)O)NC(=O)[C@H](CC(C)C)NC(=O)[C@H](CC(C)C)NC(=O)[C@H](CCCNC(=N)N)NC(=O)[C@H](CCSC)NC(=O)[C@@H](NC(=O)[C@H](CCC(=O)O)NC(=O)[C@H](Cc1ccc(O)cc1)NC(=O)[C@@H](NC(=O)[C@H](CCCCN)NC(=O)[C@H](CCC(N)=O)NC(=O)[C@H](CC(C)C)NC(=O)[C@@H](NC(=O)[C@H](Cc1c[nH]c2ccccc12)NC(=O)[C@H](CCC(=O)O)NC(=O)[C@H](CCCCN)NC(=O)[C@@H](N)CC(=O)O)[C@@H](C)CC)[C@@H](C)CC)[C@@H](C)CC)C(C)C)C(=O)N[C@@H](Cc1ccc(O)cc1)C(=O)N[C@@H](CCC(=O)O)C(=O)N[C@@H](CC1CCCCC1)C(=O)N[C@@H](CCSC)C(=O)N[C@@H](CCCCN)C(=O)N[C@@H](CCCCN)C(N)=O [SIH-11] (H-DKEWILQKIYEIMRLLDEL[dA]D[Aib]EASMRVSDLIYE[Cha]MKK-NH2)	6.60 to 6.90	–	–	> 75	8.89	> 50,000

— publication PMC9512702 (Nature Chemical Biology, 2022)
